Among the data in ChEMBL document CHEMBL1122097 (J Med Chem, 1982) are IC50 values, retold here.

Experiment [1] is described as follows: Tested in vitro for its ability to displace 3[H] clozapine from non-muscarinic receptor in rat brain. Type of experiment: tissue-based.
A further experiment deals with Dopamine receptor. Description: Displacement of 3[H]spiroperidol from Dopamine receptor in rat brain.
The target of experiment [2] is Muscarinic acetylcholine receptor. As to the kind of experiment: Tested in vitro for its ability to displace 3[H] clozapine from Muscarinic acetylcholine receptor in rat brain. Type of experiment: tissue-based.

The term IC50 denotes the point on the concentration scale where inhibition reaches its midpoint. Read a high IC50 as a need for much substance. Compound `CN1CCN(C2=Cc3cc(Cl)ccc3Cc3ccccc32)CC1` came in with an IC50 in experiment [1] of 13 nM.
Take `CN1CCN(C2=Nc3ccccc3Nc3ccccc32)CC1`: the concentration for half-maximal inhibition (IC50) was 25 nM in experiment [1] and above 10000 nM on Dopamine receptor.
Turning to `CN1CCN(C2=Cc3ccccc3Cc3ccc(Cl)cc32)CC1`, in experiment [1], the IC50 was found to be 10 nM.
On the same count and under the same terms, with `CN1CCN(C2=Cc3ccccc3Cc3ccccc32)CC1` the figure was 3.7 nM.
As to `CN1CCN(C2=Cc3cc(Cl)ccc3Oc3ccccc32)CC1`, the IC50 in experiment [1] turned out to be 9.4 nM; on Dopamine receptor, 357 nM; in experiment [2] it was 1970 nM.
The like results for `CN1CCN(C2=Cc3ccccc3Oc3ccccc32)CC1` were, in that order, 4 nM, 1500 nM and 2290 nM.
For `CN1CCN(C2=Cc3ccccc3Oc3ccc(Cl)cc32)CC1` the same measures were 7.3 nM, 27 nM and 2027 nM.
Regarding `CN1CCN(C2=Nc3cc(Cl)ccc3Nc3ccccc32)CC1` [CLOZAPINE], in experiment [1], the IC50 turned out to be 13 nM.
As to `CN1CCN(C2=Nc3ccccc3Nc3ccc(Cl)cc32)CC1` [ISOCLOZAPINE], the IC50 in experiment [1] was found to be 17 nM; in experiment [2] it was 28 nM.
